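96-well plates; 48 h exposure; 5 concentrations. Endpoints by linear interpolation between flanking doses. Not reached: highest tested concentration assigned. GI50 marks 50% less growth. TGI: total growth inhibition.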
Key:
Test in all cases: NCI-60 cell line screen, 48 h
UACC-257 melanoma = test system: UACC-257 melanoma
KM12 colon = test system: KM12 colon
UO-31 renal = test system: UO-31 renal
OVCAR-3 ovarian = test system: OVCAR-3 ovarian
U251 CNS = test system: U251 CNS
A498 renal = test system: A498 renal
SNB-75 CNS = test system: SNB-75 CNS
ACHN renal = test system: ACHN renal
RXF 393 renal = test system: RXF 393 renal
DU-145 prostate = test system: DU-145 prostate

| Compound | TGI (UACC-257 melanoma) [µM] | TGI (KM12 colon) [µM] | TGI (UO-31 renal) [µM] | TGI (OVCAR-3 ovarian) [µM] | TGI (U251 CNS) [µM] | TGI (A498 renal) [µM] | TGI (SNB-75 CNS) [µM] | TGI (ACHN renal) [µM] | TGI (RXF 393 renal) [µM] | GI50 (UACC-257 melanoma) [µM] | GI50 (KM12 colon) [µM] | GI50 (UO-31 renal) [µM] | GI50 (OVCAR-3 ovarian) [µM] | GI50 (U251 CNS) [µM] | GI50 (ACHN renal) [µM] | GI50 (RXF 393 renal) [µM] | GI50 (DU-145 prostate) [µM] | TGI (DU-145 prostate) [µM] | GI50 (SNB-75 CNS) [µM] | GI50 (A498 renal) [nM] |
| --- | --- | --- | --- | --- | --- | --- | --- | --- | --- | --- | --- | --- | --- | --- | --- | --- | --- | --- | --- | --- |
| O=c1c(O)cc2c(O)oc3c(=O)c(O)c(O)c4c(O)oc1c2c43 | > 100 | > 100 | > 100 | > 100 | 34.3 | > 100 | > 100 | > 100 | > 100 | – | – | – | – | – | – | – | – | – | – | – |
| C=C1C(=O)c2cc3c(cc2C(c2cc(OC)c(OC)c(OC)c2)[C@@H]1C(=O)O)OCO3 (stereo partly drawn) | > 100 | > 100 | > 100 | 72.8 | > 100 | > 100 | 61.1 | > 100 | > 100 | – | – | – | – | – | – | – | – | – | – | – |
| C=C(COC(C)=O)CC(/C=C(\C)CC/C=C(\C)CO)OC(C)=O (stereo not drawn) | – | > 100 | > 100 | > 100 | > 100 | > 100 | > 100 | > 100 | > 100 | – | – | – | – | – | – | – | – | – | – | – |
| N#Cc1c(-c2ccccc2)cc(-c2cccs2)c(C#N)c1N | > 100 | > 100 | – | > 100 | > 100 | > 100 | 55.2 | > 100 | – | – | – | – | – | – | – | – | – | – | – | – |
| C=C1c2[nH]c3ccccc3c2CC(C(=O)O)N1C(O)c1ccc(S(=O)(=O)O)cc1 (stereo not drawn) | > 100 | > 100 | > 100 | > 100 | > 100 | > 100 | > 100 | > 100 | > 100 | – | – | – | – | – | – | – | – | – | – | – |
| O=C([O-])CCc1ccccc1.O=C([O-])CCc1ccccc1.O=C([O-])CCc1ccccc1.O=C([O-])CCc1ccccc1.[Mo+2].[Mo+2] | > 100 | > 100 | > 100 | > 100 | > 100 | – | – | > 100 | > 100 | > 100 | > 100 | > 100 | > 100 | > 100 | > 100 | > 100 | – | – | – | – |
| OCCCc1cnco1 | > 100 | > 100 | > 100 | > 100 | > 100 | > 100 | > 100 | > 100 | > 100 | – | – | – | – | – | – | – | – | – | – | – |
| O=C(O)c1cn(C2CC2)c2cc(N3CCN(C(=O)Nc4nc(-c5ccc(Br)cc5)cs4)CC3)c(F)cc2c1=O | – | > 100 | > 100 | > 100 | > 100 | – | > 100 | > 100 | > 100 | – | 1.93 | 1.64 | 1.42 | 1.96 | 3.11 | 3.9 | 2.05 | > 100 | 0.715 | – |
| NC(=S)N/N=C(\CCC(=O)Nc1ccccc1[N+](=O)[O-])CC(=O)c1ccco1 | > 100 | > 100 | > 100 | > 100 | > 100 | > 100 | > 100 | > 100 | > 100 | – | – | – | – | – | – | – | – | – | – | – |
| C=CCC12CCC(=O)[C@@]1(C)CC=C(O)C2=O (stereo partly drawn) | > 100 | > 100 | > 100 | > 100 | > 100 | > 100 | > 100 | > 100 | > 100 | – | – | – | – | – | – | – | – | – | – | – |
| CCN1C(=O)N(CC)C2C1NC(=S)N2/N=C/C=C/c1ccccc1OC (stereo not drawn) | > 100 | > 100 | > 87.5 | 1.16 | > 100 | 0.0888 | > 100 | > 100 | > 100 | > 100 | 0.0406 | 0.0879 | 0.0351 | 0.0427 | 0.0401 | 0.0521 | – | – | 0.0389 | 29.5 |
| O=C1C(=C([O-])c2ccccc2)C(=O)c2ccccc21.O=C1C(=C([O-])c2ccccc2)C(=O)c2ccccc21.[Co+2] | > 100 | > 100 | > 100 | > 100 | > 100 | > 100 | > 100 | > 100 | – | 90.8 | > 100 | > 100 | 75.1 | > 100 | > 100 | – | – | – | > 100 | > 100000 |
| CCc1cccc(CC)c1NC(=O)CC1SC(N)=NC1=O (stereo not drawn) | > 100 | > 100 | > 100 | > 100 | > 100 | > 100 | > 100 | > 100 | > 100 | – | – | – | – | – | – | – | – | – | – | – |
| N#Cc1c2ccccc2c2nnc3ccc(C(F)(F)F)cc3n12 | 76.3 | > 100 | > 100 | > 100 | > 100 | – | > 100 | > 100 | 80.3 | 21.2 | 61.2 | 85.6 | 38.2 | 28.9 | 27.3 | 23.4 | 28 | > 100 | 47.6 | – |
| O=c1nc(N2CCCC2)nc(N2CCCC2)s1 | > 100 | > 100 | > 100 | – | > 100 | > 100 | > 100 | > 100 | > 100 | – | – | – | – | – | – | – | – | – | – | – |
| CC(=O)CC(=O)NC=O | > 100 | > 100 | > 100 | > 100 | > 100 | > 100 | > 100 | > 100 | > 100 | – | – | – | – | – | – | – | – | – | – | – |
| COC1=CC(=O)OC(/C=C(C)/C=C/C2=C(C)CCCC2(C)C)C1 (stereo not drawn) | > 100 | > 100 | > 100 | > 100 | > 100 | > 100 | > 100 | > 100 | > 100 | – | – | – | – | – | – | – | – | – | – | – |
| CC(=O)OCC1OC([Se-])C(OC(C)=O)C(OC(C)=O)C1OC(C)=O.N#CCC[PH+](CCC#N)CCC#N.[Au+] (stereo not drawn) | 13.6 | > 74.5 | 42.1 | 49.7 | > 48.8 | – | > 100 | 39.4 | > 100 | 5.93 | 10.3 | 8.41 | 7.3 | 10.9 | 7.06 | 3.14 | – | – | 21.3 | – |
| N#Cc1ccc(C(C2C(=O)NC(=O)NC2=O)C2C(=O)NC(=O)NC2=O)cc1 | > 100 | > 100 | > 100 | > 100 | > 100 | – | – | > 100 | – | – | – | – | – | – | – | – | – | – | – | – |

Source: PubChem BioAssay (NCI)
